Results published in patent US11185593B2, “Alkylating agent for alkylating target with driver oncogene mutation” (Chiba Prefecture, priority 2013, dated 2021).

Key:
Type in all cases: cell-based
[1] = test system: IMR-32 cells; test: Cytotoxicity test, Cell Counting Kit-8, 72 hours; conditions: Homo sapiens
Procedure: (§1) The experiment was carried out in the same manner as that in the case of using KR12. The cells used in the experiment were Kelly cells, SK-N-SH cells, IMR-32 cells, SK-N-AS cells, and MDA-MB-231 cells. These cells were cultured in a DMEM, 10% FBS and 1% Pen/St medium, and in an RPMI1640, 10% FBS and 1% Pen/St medium, respectively. The cells of each type were seeded in each well of a 96-well plate at a cell density of 1000 cells/50 μl/well, and were then cultured under conditions of 37° C., 5% CO2, and saturated humidity for 24 hours. Thereafter, a reagent was diluted with a medium (final concentration: 1, 3, 10, 30, and 100 nM), and the diluted reagent was then added to the cultured cells in an amount of 50 μl/well, and the obtained mixture was then blended. The thus obtained mixture was cultured again under conditions of 37° C., 5% CO2, and saturated humidity for 72 hours. Thereafter, Cell Counting Kit-8 (DOJINDO) was added to the obtained culture in an amount of 10 μl/well, and the thus obtained mixture was blended and was then cultured under conditions of 37° C., 5% CO2, and saturated humidity for 2 hours. The absorbance was measured using Microplate Reader MTP-310 Lab (COLONA ELECTORIC), and the IC50 value was then calculated.
as §1, with “were” for “were Kelly cells, SK-N-SH cells,”, “cells” for “cells, SK-N-AS cells,”, “TGW” for “MDA-MB-231”

[2] = test system: TGW cells; test: Cytotoxicity test, Cell Counting Kit-8, 72 hours
Procedure: as §1, with “were” for “were Kelly cells, SK-N-SH cells,”, “cells” for “cells, SK-N-AS cells,”, “TGW” for “MDA-MB-231”

[3] = test system: IMR-32 cells (MYCN, 25 copies); test: Cell growth curve, Incucyte culture time-lapse microscope; conditions: IMR-32, 1 to 100 nM, FIG. 32
Procedure: (§2) The cells were seeded in each well of a 96-well plate at a cell density of 1000 cells/50 μl/well, and were then cultured under conditions of 37° C., 5% CO2, and saturated humidity for 24 hours. On the following day, the culture media was replaced with a culture media, to which a DMSO control, or 1 nM, 3 nM, 10 nM, 30 nM or 100 nM MYCNA1 had been added, and the resulting cells were then observed under an Incucyte culture time-lapse microscope (Essen Instruments, Ann Arbor, Mich.) every 6 hours. A growth curve was produced from an imaging plate using Incucyte system (Essen Instruments, Ann Arbor, Mich.). The cells used in the experiment were neuroblastoma cell lines having MYCN amplification, IMR-32 cells (MYCN, 25 copies) and TGW cells (MYCN, 60 copies). The cells of each type were cultured in a DMEM, 10% FBS and 1% Pen/St medium, and in an RPMI1640, 10% FBS and 1% Pen/St medium, respectively.

[4] = test system: TGW cells (MYCN, 60 copies); test: as above; conditions: 1 to 100 nM, FIG. 32
Procedure: as §2

[5] = test system: MCF7 cells; test: Cytotoxicity test, Cell Counting Kit-8, 72 hours; conditions: Homo sapiens, MCF7, breast cancer cells, 0.3 to 300 nM
Procedure: as §1, with “MCF7 cells” for “Kelly cells, SK-N-SH cells, IMR-32 cells, SK-N-AS cells,”

[6] = test system: NB69 cells; test: Cell growth measurement test, 72 hours; conditions: Homo sapiens, NB69, without MYCN amplification, 0.3 to 300 nM
[7] = test system: HT29 cells; test: Cell growth measurement test, 72 hours; conditions: Homo sapiens, HT-29, HT29, colon cancer cells, 0.3 to 300 nM
[8] = test system: HDF cells; test: Cell growth measurement test, 72 hours; conditions: fibroblasts, 0.3 to 300 nM

`CC(=O)Nc1cn(C)c(C(=O)Nc2cc(C(=O)Nc3cc(C(=O)NCCC(=O)Nc4cn(C)c(C(=O)Nc5cc(C(=O)NCCCC(=O)Nc6cc(C(=O)Nc7cc(C(=O)NCCC(=O)Nc8cc(C(=O)Nc9ccc%10[nH]c(C(=O)N%11CC(CCl)c%12c%11cc(O)c%11ccccc%12%11)cc%10c9)n(C)c8)n(C)c7)n(C)c6)n(C)c5)n4)n(C)c3)n(C)c2)n1` (stereo not shown) [MYCNA1] was tested, and the IC50 ([1]; IMR-32 cells, 1 to 100 nM, FIG. 33) was 0.0097 µM, the IC50 ([2]; TGW cells, 1 to 100 nM, FIG. 33) was 0.0129 µM and the “cell growth (growth curve)” value [3] was “suppressed by MYCNA1 in a concentration-dependent manner”. The “cell growth (growth curve)” value [4] was “suppressed by MYCNA1 in a concentration-dependent manner”.

`CC(=O)Nc1cn(C)c(C(=O)Nc2cn(C)c(C(=O)Nc3cn(C)c(C(=O)NCCC(=O)Nc4cn(C)c(C(=O)Nc5cc(C(=O)Nc6cc(C(=O)NCCCC(=O)Nc7cn(C)c(C(=O)Nc8cn(C)c(C(=O)Nc9cc(C(=O)NCCC(=O)Nc%10cc(C(=O)Nc%11ccc%12[nH]c(C(=O)N%13CC(CCl)c%14c%13cc(O)c%13ccccc%14%13)cc%12c%11)n(C)c%10)n(C)c9)n8)n7)n(C)c6)n(C)c5)n4)n3)n2)n1` (stereo not shown) [MYCNA3] gave an IC50 ([1]; IMR-32, IMR32, with MYCN amplification, 0.3 to 300 nM) of 0.0011 µM, an IC50 [5] of 0.152 µM and an IC50 ([2]; TGW, with MYCN amplification, 0.3 to 300 nM) of 0.0037 µM. The IC50 [6] was 0.077 µM, the IC50 [7] was 0.24 µM and the IC50 [8] was 0.0566 µM.
